According to publication PMC12060211, “Development of Efficient Covalent Inactivators of a Fungal Aspartate Semialdehyde Dehydrogenase” (Drug Development Research, 2025):

Target: T1, CalASADH (C. albicans ASADH, aspartate semialdehyde dehydrogenase) (Candida albicans, UniProt Q5ALM0)
T1 construct: gene HOM2; catalytic Cys-156; PDB 3hsk used as docking model of the same protein; ATCC 10231 is only the growth-test strain
T1 sequence (Q5ALM0 1-365): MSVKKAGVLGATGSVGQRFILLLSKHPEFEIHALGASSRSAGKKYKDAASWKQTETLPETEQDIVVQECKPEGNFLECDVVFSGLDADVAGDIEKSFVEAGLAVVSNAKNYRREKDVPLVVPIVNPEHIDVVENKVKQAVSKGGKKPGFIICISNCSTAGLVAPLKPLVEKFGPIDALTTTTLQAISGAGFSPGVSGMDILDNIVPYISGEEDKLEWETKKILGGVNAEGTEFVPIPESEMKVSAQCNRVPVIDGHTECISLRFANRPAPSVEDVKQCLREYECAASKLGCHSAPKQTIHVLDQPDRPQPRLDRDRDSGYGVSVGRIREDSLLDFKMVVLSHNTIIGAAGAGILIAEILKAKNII
Assay: time-dependent inactivation, NADPH formation at […] nm, kobs = kinact[I]/(Ki+[I])
Format: biochemical
Conditions: covalent; irreversible inactivation; residual activity read at pH 8.6 with 0.3 mM L-aspartate-beta-semialdehyde, 20 mM phosphate, 1.5 mM NADP

| Compound | KI (inactivation) [nM] |
| --- | --- |
| CC(=O)CS(C)(=O)=O [compound 19, sulfonyl ketone, R1 methyl, R2 methyl] | 31700 ± 4900 |
| CS(=O)(=O)CC(=O)c1ccccn1 [compound 22, sulfonyl ketone, R1 methyl, R2 2-pyridinyl] | 6080 ± 760 |
| N[C@@H](C/C=C/S(=O)(=O)C1CC1)C(=O)O [compound 18, vinyl sulfone, R1 cyclopropyl, R2 alanyl] | 390 ± 93 |
| CS(=O)(=O)/C=C/c1ccc([N+](=O)[O-])s1 [compound 5, vinyl sulfone, R1 methyl, R2 5-nitrothiophene] | 2100 ± 600 |
| CS(=O)(=O)/C=C/c1ccc(C(N)=O)cc1 [compound 3, vinyl sulfone, R1 methyl, R2 benzamide] | 531000 ± 134000 |
| CS(=O)(=O)CC(=O)c1ccncc1 [compound 20, sulfonyl ketone, R1 methyl, R2 4-pyridinyl] | 59000 ± 22000 |
| CS(=O)(=O)/C=C/C(N)=O [compound 12, sulfonyl acrylamide, R1 methyl, R2 amide] | 2700 ± 620 |
| CS(=O)(=O)/C=C/C[C@H](N)C(=O)O [compound 14, vinyl sulfone, R1 methyl, R2 alanyl] | 7600 ± 1200 |
| CN(C)S(=O)(=O)/C=C/C[C@H](N)C(=O)O [compound 15, vinyl sulfonamide, R1 dimethylamino, R2 alanyl] | 27900 ± 4300 |
| CC(C)S(=O)(=O)/C=C/C[C@H](N)C(=O)O [compound 17, vinyl sulfone, R1 isopropyl, R2 alanyl] | 760 ± 150 |
| CS(=O)(=O)CC(=O)c1ccccc1 [compound 23, sulfonyl ketone, R1 methyl, R2 phenyl] | 2200 ± 770 |
| CS(=O)(=O)/C=C/c1ccnc2ccccc12 [compound 6, vinyl sulfone, R1 methyl, R2 4-quinoline] | 4400 ± 890 |
| CS(=O)(=O)/C=C/c1ccc2ccccc2n1 [compound 7, vinyl sulfone, R1 methyl, R2 2-quinoline] | 960 ± 240 |
| O=C(/C=C/c1ccncc1)N1CCOCC1 [compound 24, acrylamide, R1 morpholino, R2 4-pyridinyl] | 4410 ± 850 |
| CS(=O)(=O)/C=C/c1ccc(O)cc1 [compound 1, vinyl sulfone, R1 methyl, R2 1,4-phenol] | 538000 ± 300000 |
| N[C@@H](C/C=C/S(=O)(=O)Cc1ccccc1)C(=O)O [compound 16, vinyl sulfone, R1 benzyl, R2 alanyl] | 1800 ± 820 |
| CC(=O)Nc1ccc(/C=C/S(C)(=O)=O)cc1 [compound 2, vinyl sulfone, R1 methyl, R2 acetanilide] | 203000 ± 83000 |
| O=S(=O)(/C=C/c1cccc2cnccc12)C1CC1 [compound 9, vinyl sulfone, R1 cyclopropyl, R2 5-isoquinoline] | 2480 ± 410 |
| NC(=O)/C=C/c1ccncc1 [compound 25, acrylamide, R1 amino, R2 4-pyridinyl] | 3790 ± 1600 |
| O=S(=O)(/C=C/c1ccncc1)N1CCOCC1 [compound 11, vinyl sulfonamide, R1 2-morpholino, R2 4-pyridinyl] | 1170 ± 130 |
| CS(=O)(=O)/C=C/c1cccc2cnccc12 [compound 8, vinyl sulfone, R1 methyl, R2 5-isoquinoline] | 650 ± 110 |
| CS(=O)(=O)CC(=O)c1cccnc1 [compound 21, sulfonyl ketone, R1 methyl, R2 3-pyridinyl] | 25900 ± 6600 |
| NC(=O)/C=C/S(=O)(=O)c1ccccc1 [compound 13, sulfonyl acrylamide, R1 phenyl, R2 amide] | 2300 ± 320 |
| O=S(=O)(/C=C/c1ccncc1)c1ccccn1 [compound 10, vinyl sulfone, R1 2-pyridinyl, R2 4-pyridinyl] | 2200 ± 180 |
| CS(=O)(=O)/C=C/c1ccc(O)cn1 [compound 4, vinyl sulfone, R1 methyl, R2 5-hydroxy-2-pyridine] | 610 ± 91 |
